From patent publication US9982249B2, “Xylose isomerases and their uses” (BP Corporation North America Inc., priority 2012, dated 2018)

Assays:
Experiment in all cases: Km and Vmax determination at pH 6 (XI activity assay coupled to sorbitol dehydrogenase, Hanes plot)
Type in all cases: biochemical
Conditions in all cases: xylose about 40-600 mM, about 35° C., lysate of S. cerevisiae CEN.PK2-1Ca expressing XI from p426PGK1
[1] = system: Prevotella xylose isomerase, clone 5586MI108_002, SEQ ID NO: 96
Method: (§1) XI activity in cell lysates was determined using a method based on that of Kersters-Hilderson et al., 1986, Enzyme Microb. Technol. 9:145-148, in which enzymatic conversion of xylose to xylulose by the XI is coupled with the enzymatic conversion of the product (xylulose) to xylitol via the enzyme sorbitol dehydrogenase (SDH). SDH activity requires the oxidation of NADH to NAD^+. The rate of oxidation of NADH is directly proportional to the rate of SDH conversion of D-xylulose to D-xylitol and is measured by the decrease in absorbance at 340 nm One unit of enzyme activity as measured by this assay is a decrease of […] of NADH per minute under assay conditions. All reactions, solutions, plates, and spectrophotometer were equilibrated to about 35° C. prior to use. Assays were performed either on fresh lysates immediately after preparation or lysates that had been frozen at −20° C. immediately after preparation. Assays were performed using a BioTek Model: Synergy H1 Hybrid Reader spectrophotometer and 96-well plates (Corning, Model #Costar® #3598). All spectrophotometric readings were performed at 340 nm. […]
(§2) The reaction buffer used for experiments at pH 7.5 was about 100 mM Tris-HCl (pH 7.5). […] For experiments where activity was also measured at pH 6, the buffer was changed to about 100 mM sodium phosphate, pH 6. […]
(§3) Any sample dilutions were performed using the reaction buffer as diluent. […] Reactions were mixed and read immediately using kinetic assay mode for about 10 minutes. Volumetric activity (VA) units are in milli-absorbance (mA) units per minute per ml of lysate added to the reactions (mA/min/ml). […] If protein quantitation was performed, specific activities (SA) were calculated where the units for SA are (mole NADH^+/min/mg, or U/mg lysate protein). […]
(§4) The Km and Vmax at pH 6 were determined for a subset of the XI clones, expressed on p426PGK1 vector in Saccharomyces cerevisiae CEN.PK2-1Ca (ATCC: MYA1108), using the XI activity assay described in the Materials and Methods and varying the concentrations of xylose from about 40-600 mM. […]

[2] = system: Firmicutes xylose isomerase, clone 1753MI4_001, SEQ ID NO: 38
Method: as §1, §2, §3, §4

[3] = system: Prevotella xylose isomerase, clone 1754MI1_001, SEQ ID NO: 78
Method: as §1, §2, §3, §4

`OC1OC[C@@H](O)[C@H](O)[C@H]1O` (stereo partly drawn) [xylose, D-xylose] was tested, and the Km [1] was 33.7 mM, the Km [2] was 28.8 mM and the Km [3] was 35.2 mM.
